{"source": "patent US8889123B2", "about": "“Compositions and soft tissue replacement methods” (Allergan, Inc., priority 2010, dated 2014)", "key": {"FGF-2 [1]": {"tested_on": "FGF-2", "assay": "Incisional wound model, FGF-2 expression in skin wound tissue by Western blot", "assay_type": "in vivo, Sprague-Dawley rats", "details": "topical 0.004% twice daily vs vehicle", "source_text": "(§1) To test whether the compounds of Formula I promote the formation of blood vessels, and incisional wound model was employed over a 14-day period. Sprague-Dawley rats (180-200 g) were anesthetized, the backs shaved, and a 2-cm long incision was made on the back skin of rats under sterile conditions, reaching the deep fascia. The wound was immediately closed with 4-0 sutures. The animals were topically treated with vehicle or Compound 1 at 0.004% twice daily. The vehicle contains ethanol 30%, propylene glycol 12%, dipropylene glycol 5%, benzyl alcohol 5%, glycerol 3% and normal saline 45%. Biopsy samples of skin wound tissues were analyzed with Western blots day-7 and day-14 post-surgery. Tissue samples about 1 mm thick were taken from both sides of the wound. Protein was extracted, and FGF-2/VEGF expression was monitored, with Western blot analysis."}, "VEGF [2]": {"tested_on": "VEGF", "assay": "Incisional wound model, VEGF expression in skin wound tissue by Western blot", "assay_type": "in vivo, Sprague-Dawley rats", "details": "topical 0.004% twice daily vs vehicle", "source_text": "as §1"}, "FGF-2 [3]": {"tested_on": "FGF-2", "assay": "Oral ulcer wound model, FGF-2 up-regulation", "assay_type": "in vivo"}, "VEGF [4]": {"tested_on": "VEGF", "assay": "Oral ulcer wound model, VEGF up-regulation", "assay_type": "in vivo"}}}
{"molecule": "CC1(C)C(=O)[C@H](C/C=C\\CCCC(=O)O)[C@@H](/C=C/[C@H](O)CCc2sc3ccccc3c2Cl)[C@@H]1O", "note": "[Compound 1]", "values": [{"measurement": "enhanced expression of FGF-2, normalized with β-actin", "setting": "FGF-2 [1]; day-7, P=0.004", "result": 60, "unit": "%"}, {"measurement": "increase in FGF-2 synthesis over the whole study period", "setting": "FGF-2 [1]; whole study period (day-14), P=0.04", "result": "persisted for the whole study period"}, {"measurement": "VEGF expression increase, normalized with β-actin", "setting": "VEGF [2]; day-7, P=0.039", "result": 25, "unit": "%"}, {"measurement": "increase in VEGF synthesis by day-14", "setting": "VEGF [2]; day-14", "result": "returned to the baseline"}, {"measurement": "up-regulation of FGF-2", "setting": "FGF-2 [3]", "result": "up-regulation"}, {"measurement": "up-regulation of VEGF", "setting": "VEGF [4]", "result": "up-regulation"}]}
